Source: US20230203060A1 (GENFLEET THERAPEUTICS (SHANGHAI) INC., priority 2020, published 2023)

Columns and labels:
[1] = test system: phosphorylated ERK downstream of KRAS G12C in MIA PaCa2 cells; assay: Cell p-ERK detection experiment (HTRF) in MIA PaCa2; type: cell-based, human; settings: Homo sapiens, MIA PaCa-2, 2 h, MIA PaCa2 cells, 2 hours with compound, Advance ERK phospho-T202/Y204 HTRF kit; read-out: p-ERK IC50
Source text: Raw materials and instruments: MIA PaCa-2 purchased from ATCC; article number: CRL-1420; batch number: 63143594; DMEM purchased from Gibco; article number: 11995-065; batch number: 2186878; FBS purchased from Gibco; article number: 10099-141; batch number: 2109290CP; Horse serum purchased from Gibco; article number: 16050-122; batch number: 1818976; Trypsin-EDTA purchased from Gibco; article number: 25200-072; batch number: 2085552; PS purchased from Gibco; article number: 15140-122; batch number: 2145451; DMSO purchased from VWR AMRESCO; article number: 0231-500ML; batch number: 0457C072; 96-well cell culture plate purchased from Corning; article number: 3599; batch number: 22718601; white opaque 96-well plate purchased from Cisbio; article number: 66PL96025; batch number: N°05; Advance ERK phospho-T202/Y204 kit purchased from Cisbio; article number: 64AERPEH; batch number: 11D; microplate reader purchased from PerkinElmer; model: Envision MLD2105-0020; equipment number 1050369.
MIA PaCa2 was a KRAS G12C mutant human pancreatic cancer cell line cultured in 10% FBS+2.5% Horse serum DMEM culture medium. Cells at logarithmic growth stage were taken, digested with trypsin-EDTA, then collected and counted, and 2.5E4 cells were inoculated in a 96-well cell culture plate and cultured overnight. A 3.16-fold gradient concentration stock solution of 1000× compound was prepared with DMSO, and diluted 200-fold to 5× compound stock solution with culture medium. On the second day after cell inoculation, 5× compound stock solution was added to each cell culture well, with a final concentration of 1× and a DMSO content of 0.1%. DMSO was used as experimental control (control). After the compound was added and cultured for two hours, the residual culture medium was removed. 50 μL of cell lysate (from Advance ERK phospho-T202/Y204 kit, the same below) was added to each well, mixed well and incubated for 30 minutes, and then 16 μL of the mixed solution was transferred to a white opaque 96-well plate, and 16 μL of cell lysate was added to the blank wells. After the transfer was completed, 4 μL of p-ERK HTRF antibody (from Advance ERK phospho-T202/Y204 kit) mixture was added to each well, incubated for 4 hours, and the fluorescence value was read with the microplate reader. The inhibition rate of the compound IR (%)=(RLU control -RLU compound)/(RLU control-RLU blank)×100% was calculated. The gradient dilution concentration of the compound and the corresponding cell proliferation inhibition rate were fitted by Prism 8 four-parameter method, and the IC50 value was calculated. The compounds prepared in the above embodiments of the present disclosure have inhibitory activity of 0.0001 μM to 1 μM on the phosphorylated ERK level downstream of the cell channel of KRAS G12C protein mutant; some compounds have inhibitory activity of 0.001 μM to 1 μM or 0.001 μM to 0.5 μM on phosphorylated ERK level downstream of cell channel of KRAS G12C protein mutant.

KRAS G12C = target: T1, KRAS G12C (Homo sapiens, UniProt P01116, G12C); assay: KRAS G12C NEA-HTRF experiment (SOS1-catalyzed displacement of GDP by GTP); type: biochemical
T1 construct: purchased Reactionbiology
Source text: Raw materials and instruments: KRAS G12C (his-tag) purchased from Reactionbiology; batch number 3496; SOS1 purchased from Reactionbiology; batch number: 3501; GTP purchased from Sigma; article number: G8877; batch number: SLBV1450; Tris-HC1 purchased from Sigma; EDTA purchased from absin; article number: abs42017668; batch number: JE20; NaCl purchased from Sigma; article number: 55886; batch number: SLBW4193; MgCl2 purchased from Shyuanye; article number: R21455; batch number: L07S9G69806; HEPES purchased from Life Technologies; article number: 15630-080; batch number: 2037042; DTT purchased from Thermo Fisher; article number: R0862; batch number: 00608918; Triton X-100 purchased from Sigma; article number: T8787-100 ML; batch number: SLBW7103; DY647-labeled GDP purchased from Jena Bioscience; article number: NU-840-647P1; batch number: BM019-045; Anti-6H1S-Tb purchased from Cisbio; article number: 61H12TLA; batch number: 13A; Bradford Assay Kit purchased from Thermo Fisher; article number: 23246; batch number: UG287474; white opaque 96-well plate purchased from Cisbio; article number: 66PL96025; batch number: N°06; NAP-5 column purchased from GE Healthcare; article number: 17085301; batch number: 16995164; mircoplate reader purchased from PerkinElmer; model: Envision MLD2105-0020; equipment number 1050369. The effect of compounds on SOS1-catalyzed displacement of GDP by GTP on KRAS protein was examined using a homogeneous time-resolved fluorescence (HTRF) method. 30 μM 6×his-tagged KRAS G12C recombinant protein was incubated with 80 μM fluorescent dye DY647-labeled GDP in labeling buffer (1 mM DTT, 7.5 mM EDTA, 25 mM Tris-HCl, 45 mM NaCl) at 20° C. in the dark for 2 hours, purified using NAP-5 column, and then protein quantification was performed with Bradford Assay Kit after purification to determine the concentration of KRAS […] 3.16-fold gradient concentration stock solution of 1000× compound was prepared with DMSO, and diluted 250-fold to 4× compound stock solution with reaction buffer (40 mM HEPES, 10 mM MgCl2, 1 mM DTT, 0.002% Triton X-100). KRAS G12C-GDP/Tb working solution (40 nM KRAS […] Tb) and SOS1/GTP working solution (0.2 μM SOS1, 200 μM GTP) were prepared using the reaction buffer. A white opaque 96-well plate was taken, and 5 μL of 4× compound stock solution and 10 μL of KRAS G12C-GDP/Tb working solution were added to each well. 5 μL of reaction buffer instead of 4x compound stock solution was used in the control well. After incubation in the dark for 15 minutes at 20° C., 5μL of SOS1/GTP working solution was added thereto, and the fluorescence value (excitation wavelength: 320 nm, emission wavelength: 615 nm and 665 nm) was read after incubating at 20° C. in the dark for 2 hours. Another T0 group was set up with 10 μL reaction buffer+10 μL KRAS G12C-GDP/Tb working solution, and the fluorescence value was read directly by the microplate reader. The fluorescence signal ratio RLU=(665 nm signal/615 nm signal)×10^4; and the compound inhibition rate IR (%)=(RLUcompound-RLUcontrol)/(RLUT0-RLUcontrol)×100% were calculated. The IC50 value was calculated by fitting the gradient dilution concentration of compound and the corresponding inhibition rate with the four-parameter method. The NEA activity of the compounds prepared in the above embodiments of the present disclosure was 0.0001 μM to 1 μM; the inhibitory activity of some compounds on KRAS G12C mutant MIA PaCa-2 cells was 0.001 μM to 0.5 μM or 0.001 μM to 0.1 μM.

[2] = test system: A549 cells (KRAS G12S mutant); assay: Cell proliferation inhibition experiment, 3D spheroid, CellTiter-Glo, A549; type: cell-based, human; settings: Homo sapiens, A549, 120 h, A549 (KRAS G12S mutant) 3D spheroid, 5 days with compound, CellTiter-Glo; read-out: A549 IC50
Summary of the method: (§1)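 3D spheroid format; 800 H358 / 400 A549 cells/well, 2% FBS. Cpd 3.16-fold series, 0.1% DMSO, 5 d. Readout CellTiter-Glo luminescence; IR% vs DMSO control and medium blank; 4-parameter IC50.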

[3] = test system: KRAS G12C mutant NCI-H358 cells; assay: Cell proliferation inhibition experiment, 3D spheroid, CellTiter-Glo, NCI-H358; type: cell-based, human; settings: Homo sapiens, NCI-H358, 120 h, NCI-H358 (KRAS G12C mutant) 3D spheroid, 5 days with compound, CellTiter-Glo; read-out: H358 IC50
Summary of the method: as §1

T1 sequence (P01116 1-188 isoform P01116-2 G12C): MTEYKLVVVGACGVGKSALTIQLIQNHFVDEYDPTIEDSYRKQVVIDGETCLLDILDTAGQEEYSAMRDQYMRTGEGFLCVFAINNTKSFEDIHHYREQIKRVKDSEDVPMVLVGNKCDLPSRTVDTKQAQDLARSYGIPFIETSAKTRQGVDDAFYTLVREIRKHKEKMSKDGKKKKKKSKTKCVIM

Row | IC50 [1] [nM] | IC50 (KRAS G12C) [nM] | IC50 [2] [nM] | IC50 [3] [nM] | Structure (SMILES)
1 | 1720 | 1820 | – | – | C=CC(=O)N1CCN2C(=O)c3c(N4C[C@@H](N5CC(F)C5)CC4(C)C)nc(-c4ccccc4F)c(F)c3OC[C@H]2C1 [Z654-1, (R)-8-acryloyl-4-fluoro-1-((S)-4-(3-fluoroazetidin-1-yl)-2,2-dimethylpyrrolidin-1-yl)-3-(2-fluorophenyl)-6,6a,7,8,9,10-hexahydro-12H-pyrazino[2,1-c]pyrido[3,4-f][1,4]oxazepin-12-one]
2 | 73 | – | 8680 | 7 | C=CC(=O)N1CCN2C(=O)c3c(Oc4ccccc4C(C)C)nc(-c4c(O)cccc4F)c(Cl)c3OC[C@H]2C1 [Z18, (6aR)-8-acryloyl-4-chloro-3-(2-fluoro-6-hydroxyphenyl)-1-(2-isopropylphenoxy)-6,6a,7,8,9,10-hexahydro-12H-pyrazino[2,1-c]pyrido[3,4-f][1,4]oxazepin-12-one]
3 | 162 | – | – | 23.7 | C=CC(=O)N1CCN2C(=O)c3c(N4CCN5CCC[C@@H]5C4)nc(-c4c(O)cccc4F)c(Cl)c3OC[C@H]2C1 [Z317-2, (6aR)-8-acryloyl-4-chloro-3-(2-fluoro-6-hydroxyphenyl)-1-((R)-hexahydropyrrolo[1,2-a]pyrazin-2(1H)-yl)-6,6a,7,8,9,10-hexahydro-12H-pyrazino[2,1-c]pyrido[3,4-f][1,4]oxazepin-12-one]
4 | 260 | 340 | – | – | C=CC(=O)N1CCN2C(=O)c3c(N4C[C@H](C)N(C)C[C@@H]4C)nc(-c4ccccc4F)c(Cl)c3OC[C@H]2C1 [Z483, (R)-8-acryloyl-4-chloro-3-(2-fluorophenyl)-1-((2S,5S)-2,4,5-trimethylpiperazin-1-yl)-6,6a,7,8,9,10-hexahydro-12H-pyrazino[2,1-c]pyrido[3,4-f][1,4]oxazepin-12-one]
5 | 93 | 31.5 | – | – | C=CC(=O)N1CCN2C(=O)c3c(N4CC(N(C)CC)CC4(C)C)nc(-c4ccccc4F)c(Cl)c3OC[C@H]2C1 (stereo partly drawn) [Z657, (6aR)-8-acryloyl-4-chloro-1-(4-(methylethylamine)-2,2-dimethylpyrrolidin-1-yl)-3-(2-fluorophenyl)-6,6a,7,8,9,10-hexahydro-12H-pyrazino[2,1-c]pyrido[3,4-f][1,4]oxazepin-12-one]
6 | 180 | – | – | 22 | C=CC(=O)N1CCN2C(=O)c3c(N4CCCC4(C)C)nc(-c4ccccc4F)c(Cl)c3OC[C@H]2C1 [Z147, (R)-8-acryloyl-4-chloro-1-(2,2-dimethylpyrrolidin-1-yl)-3-(2-fluorophenyl)-6,6a,7,8,9,10-hexahydro-12H-pyrazino[2,1-c]pyrido[3,4-f][1,4]oxazepin-12-one]
7 | 586 | 235 | – | – | C=CC(=O)N1CCN2C(=O)c3c(N4C[C@H](NCC(F)(F)F)CC4(C)C)nc(-c4ccccc4F)c(Cl)c3OC[C@H]2C1 (single isomer, unassigned) [Z662-2]
8 | 286 | 75.8 | – | – | C=CC(=O)N1CCN2C(=O)c3c(N4CC(N5CC(C(F)(F)F)C5)CC4(C)C)nc(-c4ccccc4F)c(Cl)c3OC[C@H]2C1 (single isomer, unassigned) [Z608-2]
9 | 143 | – | – | 29 | C=CC(=O)N1CCN2C(=O)c3c(N4CCN5CCCC5(C)C4)nc(-c4c(O)cccc4F)c(Cl)c3OC[C@H]2C1 (stereo partly drawn) [Z339, (6aR)-8-acryloyl-4-chloro-3-(2-fluoro-6-hydroxyphenyl)-1-(8a-methyloctahydropyrrolo[1,2-c]pyrazin-6 (2H)-one-1-yl)-6,6a,7,8,9,10-hexahydro-12H-pyrazino[2,1-c]pyrido[3,4-f][1,4]oxazepin-12-one]
